{
  "source": "paper PMC12194305",
  "about": "“Assessing Bioconcentration and Biotransformation of BDE-47 In Vitro: The Relevance of Bioavailable and Intracellular Concentrations” (Journal of Xenobiotics, 2025)",
  "key": {"[1]": {"parameters": "method as in PMID 37289209", "settings": "initial exposure 20 mg·L^−1, HepG2 cell assay at 37 °C; cited from earlier work"}, "[2]": {"assay": "Abiotic (volatilization) losses, contaminated medium without cells", "type": "physicochemical", "description": "A total of 2 × 10^6 ZFL cells were plated in P100 glass dishes and incubated for 24 h under standard culture conditions. Subsequently, the culture medium was replaced with a contaminated medium, which, according to the cell viability assay, maintained viability above 70% by the end of the exposure period (Section 2.3). Cells were exposed to 1.8 and 2.6 mg⋅L^−1 for 24, 48 and 72 h, in two independent experiments. Parallel experiments were conducted under identical conditions to assess losses: one set included cells without contaminated medium, and another consisted of contaminated medium without cells (“no cells”). The obtained pellets were collected from all exposure time, dried under a gentle stream of nitrogen and weighed on a precision analytical balance (±0.00001 g). Finally, the dried cell pellets and their corresponding medium collected at all exposure times, including the starting medium (“t = 0 h”), were stored at −20 °C until analysis.\n(§1) One of the objectives was to assess whether cell lines can be used within the BCF-IVIVE model, relying on intrinsic clearance in vitro, to estimate the biotransformation rate which is subsequently extrapolated to adult fish. This approach is based on the model developed by Nichols et al. and is endorsed by the OECD guideline 319A [10] and OECD 2018a. Briefly, the log10-transformed substrate experimental concentrations in the medium (Cmed) were plotted against time, and the first-order elimination rate constant (ke, h^−1) was determined as −2.3 × slope of the log-linear decline. Black et al. indicate that a correction to the elimination rate constant (ke) should be applied when the following conditions are met: (i) abiotic losses from volatilization, calculated by comparing the recovery of negative control samples (“no cells”) at each exposure time to the initial time, fall outside the acceptable range of 80–120%, (ii) the loss process follows first order kinetics, and (iii) the ratio of ke and the volatilization rate constant (kvolat) is below 10 (ke/kvolat < 10). Then, the constant corrected for losses due to volatilization (ke,loss) was determined as −2.3 × the difference of the slopes of the sample and the loss control of the log-linear descent. The in vitro constant was then extrapolated to obtain an in vivo metabolization constant (kMET). This was done using experimental cell concentration (CHEP, 10^6 cells/mL) and default parameters derived from rainbow trout. In this study, in addition to estimating BCF with the official model parameters derived from rainbow trout (BCFIVIVE,RT), BCF was also estimated with the literature-derived parameters for zebrafish (BCFIVIVE,ZF), due to the use of ZFL cells. Finally, the BCF was estimated by the ratio of concentration in the organism to concentration in the medium, following the standardized model. The concentration in the organism was predicted using the one-compartment model given by Arnot and Gobas, which includes the rate constants describing chemical uptake (k1), loss through the gills (k2), fecal egestion (kE), growth rate (kG) and metabolization rate (kMET). Except for kMET, which is estimated experimentally in vitro, the rest are only dependent on the log KOW of the compound. On the other hand, due to the use of cell lines, the free concentration estimated was introduced instead of the total concentration in the medium (CW,TOT)."}, "[3]": {"assay": "Experimental determination of free bioavailable concentration (Cfree,exp) in exposure medium by SPME", "type": "in vitro ADME", "settings": "for Cfree, exp: 28 °C, 72 h", "description": "In parallel with the exposure experiment for the evaluation of bioaccumulation and biotransformation described in the previous sections, an experiment was performed to estimate experimentally the free bioavailable concentration (Cfree,exp) in the test medium. For this purpose, an experiment was designed to simulate the test conditions, and Cfree was determined using solid-phase microextraction (SPME), following the fiber method developed by Henneberger et al..\nPDMS-coated glass microfibers (30 µm thick, 13.19 µL/m coating volume) were cut into 1.5 cm pieces and cleaned in methanol for more than 24 h prior to the experiment, with the solvent replaced at least three times. The cleaned and dried fiber was placed in a glass vial with 1 mL of sample exposure medium containing 1.8 and 2.6 mg·L^−1 BDE-47. Three replicates were prepared for each condition. A portion of the initial sample was stored at −20 °C until analysis. The vials were then sealed and incubated with rotation at 28 °C for 72 h until equilibrium of BDE-47 distribution among the fiber, medium, and binding to the predominant serum protein of the culture (Bovine serum albumin, BSA) was reached. Once at equilibrium, the fibers were extracted from the vials and desorbed with 400 µL isooctane for 24 h with rotation. Finally, the extract was analyzed by GC-MS-µECD, as described in Section 2.5. The concentration of BDE-47 in the initial sample (Cmed,0h) and in the resulting media after equilibration (Cmed,eq) was determined according to the procedure described in Section 2.5, to confirm the actual mass balance.\nSince this study evaluates and discusses the behavior of BDE-47 in comparison to observations from a previous study with phenanthrene, as explained in the introduction section, the experimental Cfree of phenanthrene was also determined, as it had not been measured previously. In this case, the difference in the process was that PA fibers (36 µm thick, 16.71 µL/m coating volume) were used. Samples of 10 and 20 mg·L^−1 PHE were prepared, and the fibers and samples were incubated for 24–48 h until equilibrium was reached, and desorbed with hexane for 3 h.\nTo determine the free concentration, concentration in the SPME fiber (Cfiber) was first estimated using Equation (1) from the concentration measured in the desorption extract (Cdes), the desorption volume (Vdes) and the coating volume of the fiber (Vfiber). This volume was estimated according to the coating volume and the length of the fiber.(1) Cfiber=Cdes·Vdes/Vfiber\nNext, Cfree,exp was determined at the time before the SPME fiber was added to the system, according to Equation (2). For this, the concentration measured in the fiber equilibrated with the medium (PDMS-BDE-47-BSA or PA-PHE-BSA), the concentration measured in the initial sample (Cmed,0h), and the partition constant of the equilibrium formed between the fiber and the medium (log DPDMS/medium; BDE-47 = 5.84 [25]; log DPA/medium; PHE = 6.69 [26]) were used.(2) Cfree=Cmed,0h·Vsample/Dfiber/medium·Cmed,0h·Vsample/Cfiber−Vfiber"}, "zebrafish": {"system": "zebrafish", "assay": "IVIVE-BCF model with zebrafish default parameters", "type": "in vitro ADME", "settings": "for BCFIVIVE, ZF: ZFL cells, zebrafish parameters", "text": "as §1"}},
  "note": "Several values for one entry are separate records, joined by “and”; a condition that tells them apart may be missing. Equal entries are not always repeated.",
  "data": [
    {"molecule": "Brc1ccc(Oc2ccc(Br)cc2Br)c(Br)c1", "note": "[BDE-47, 2,2′,4,4′-tetrabromodiphenyl ether]", "values": [
      {"measurement": "volatilization loss", "setting": "[1]", "result": 14, "unit": "%"},
      {"measurement": "Recovery of losses from volatilization (% Rec. Vol.)", "setting": "[2]; 24h, 1.8 mg·L-1, no cells vs time 0h", "result": 76, "unit": "%"},
      {"measurement": "Recovery of losses from volatilization (% Rec. Vol.)", "setting": "[2]; 24h, 2.6 mg·L-1, no cells vs time 0h", "result": 73, "unit": "%"},
      {"measurement": "Recovery of losses from volatilization (% Rec. Vol.)", "setting": "[2]; 48h, 1.8 mg·L-1, no cells vs time 0h", "result": 69, "unit": "%"},
      {"measurement": "Recovery of losses from volatilization (% Rec. Vol.)", "setting": "[2]; 48h, 2.6 mg·L-1, no cells vs time 0h", "result": 63, "unit": "%"},
      {"measurement": "Recovery of losses from volatilization (% Rec. Vol.)", "setting": "[2]; 72h, 1.8 mg·L-1, no cells vs time 0h", "result": 68, "unit": "%"},
      {"measurement": "Recovery of losses from volatilization (% Rec. Vol.)", "setting": "[2]; 72h, 2.6 mg·L-1, no cells vs time 0h", "result": 52, "unit": "%"},
      {"measurement": "decrease in Cmedium,no cells with respect to nominal concentration", "setting": "[2]; Cnominal 1.8 mg·L^−1, cell-free sample", "result": 29, "unit": "%"},
      {"measurement": "decrease in Cmedium,no cells with respect to nominal concentration", "setting": "[2]; Cnominal 2.6 mg·L^−1, cell-free sample", "result": 37, "unit": "%"},
      {"measurement": "% Cfree, exp", "setting": "[3]; Cnom 1.8 mg·L^−1, % of total concentration", "result": "0.06% and 0.06 ± 0.03%"},
      {"measurement": "Cfree, exp", "setting": "[3]; Cnom 1.8 mg·L^−1, PDMS fiber", "result": "(0.4 ± 0.2) µg·L^−1"},
      {"measurement": "% Cfree, exp", "setting": "[3]; Cnom 2.6 mg·L^−1, % of total concentration", "result": "0.08% and 0.079 ± 0.003%"},
      {"measurement": "Cfree, exp", "setting": "[3]; Cnom 2.6 mg·L^−1, PDMS fiber", "result": "(1.14 ± 0.04) µg·L^−1"},
      {"measurement": "CLH", "setting": "zebrafish; 1.8 mg·L-1, ZF", "result": 2.01, "unit": "mL/h/kg"},
      {"measurement": "CLIN VITRO, INT", "setting": "zebrafish; 1.8 mg·L-1, ZF", "result": 0.0220, "unit": "mL/h/106 cells"},
      {"measurement": "kMET", "setting": "zebrafish; 1.8 mg·L-1, ZF", "result": 0.0022, "unit": "day⁻¹"},
      {"measurement": "CLH", "setting": "zebrafish; 2.6 mg·L-1, ZF", "result": 0.333, "unit": "mL/h/kg"},
      {"measurement": "CLIN VITRO, INT", "setting": "zebrafish; 2.6 mg·L-1, ZF", "result": 0.0037, "unit": "mL/h/106 cells"},
      {"measurement": "kMET", "setting": "zebrafish; 2.6 mg·L-1, ZF", "result": 0.0004, "unit": "day⁻¹"},
      {"measurement": "BCFIVIVE, ZF", "setting": "zebrafish; Cnominal 1.8 mg·L^−1", "result": "13,885 L·kg^−1"},
      {"measurement": "BCFIVIVE, ZF", "setting": "zebrafish; Cnominal 2.6 mg·L^−1", "result": "14,926 L·kg^−1"}
    ]}
  ]
}
